From ChEMBL document CHEMBL5260827, “Fructose-1,6-bisphosphatase inhibitors: A new valid approach for management of type 2 diabetes mellitus” (Eur J Med Chem, 2017) come the findings set out here.

Series [1] concerns the target T1, Fructose-1,6-bisphosphatase 1 (Homo sapiens, UniProt P09467).
T1 sequence (P09467 whole entry): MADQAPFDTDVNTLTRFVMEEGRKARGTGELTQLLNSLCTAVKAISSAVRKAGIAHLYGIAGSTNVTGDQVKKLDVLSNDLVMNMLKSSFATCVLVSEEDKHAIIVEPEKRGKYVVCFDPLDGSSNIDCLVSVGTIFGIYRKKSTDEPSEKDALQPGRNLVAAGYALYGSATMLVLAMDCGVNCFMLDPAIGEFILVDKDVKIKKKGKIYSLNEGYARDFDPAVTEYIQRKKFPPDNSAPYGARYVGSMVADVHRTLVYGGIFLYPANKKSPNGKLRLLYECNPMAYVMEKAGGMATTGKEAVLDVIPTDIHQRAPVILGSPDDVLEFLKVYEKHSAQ
The experiment in a line: Inhibition of human liver FBPase.

In series [2] the target is T1, Fructose-1,6-bisphosphatase 1. The experiment in a line: Inhibition of human liver FBPase by spectrophotometric method. It counts as tissue-based.
The species entered for series [3] is Oryctolagus cuniculus.
Description: Binding affinity to recombinant rabbit FBPase expressed in Escherichia coli assessed as maximal activity
Series [4] deals with T1, Fructose-1,6-bisphosphatase 1. The experiment in a line: biochemical.
Series [5] shares this target. The experiment in a line: Inhibition of human liver FBPase expressed in Escherichia coli BL21 (DE3) measured after 48 hrs by spectrophotometry analysis.
Series [6] concerns Rattus norvegicus. The experiment in a line: Hypoglycemic activity in ZDF rats assessed as reduction in blood glucose level at 10 to 300 mg/kg, po. To be noted: dose 10-300 mg/kg. It counts as functional.
The test system of series [7] is Mus musculus. The experiment in a line: Hypoglycemic activity in db/db mouse assessed as reduction in blood glucose level at 300 mg/kg, po administered for 5 days. It counts as functional. The note with it: time 5 day.
A short description of series [8]: Oral bioavailability in cynomolgus monkey at 10 mg/kg. The format is ADME, organism-based, Macaca fascicularis. The note with it: in vivo.
The test system of series [9] is Hepatocyte. The experiment in a line: Inhibition of glucose production in human hepatocyte assessed as reduction in […]. It counts as functional, cell-based.
Series [10] in a line: Inhibition of rat FBPase.
Series [11] can be described thus: Inhibition of Cynomolgus monkey FBPase. More on the design: species or system Macaca fascicularis.
Series [12] is described as follows: Cmax in Cynomolgus monkey at 10 mg/kg, po measured after 3 hrs by LC/MS/MS analysis. It counts as ADME, organism-based, Macaca fascicularis. Details: dose 10 mg/kg, time 3 hrs, route po. To be noted: in vivo.
A short description of series [13]: Half life in Cynomolgus monkey at 10 mg/kg, po. It counts as ADME, organism-based, Macaca fascicularis. To be noted: in vivo.
A short description of series [14]: Tmax in Cynomolgus monkey at 10 mg/kg, po upto 24 hrs by LC/MS/MS analysis. It counts as ADME, organism-based, Macaca fascicularis. The note with it: in vivo.

As for `COc1ccc(CC(=O)Nc2cccc(-c3nnc(-c4cccc(Cl)c4)o3)c2)cc1OC`, in [1], the 50% inhibitory concentration (IC50) turned out to be 15400 nM.

Turning to `CC(C)Cn1c(C2CCC(P(=O)(O)O)O2)nc2c(N)c(F)cc(CCBr)c21` (stereo unspecified), in series [2], the IC50 turned out to be 34 nM.

For the compound `CCOc1cc2ncnc(Nc3cccc(Cl)c3)c2cc1OCC`, in series [3], the Km was 2.7 µM.

Regarding `CSc1nc(N)c2nc(-c3ccc(P(=O)(O)O)o3)n(CC(C)C)c2n1`, in series [4], 700000 nM corresponded to half-maximal inhibition (IC50).

Compound `N#Cc1ccc(C(C(=O)NCCc2ccc(O)cc2)N2C(=O)C3Cc4ccc(O)cc4CN3C(=O)C2CC2CCCCC2)cc1` (stereo unspecified) gave a concentration for half-maximal inhibition (IC50) in series [2] of 370 nM.

In series [2], `CC1=CC=CN2C(CC(C)C)C(c3ccc(P(=O)(O)O)o3)=NC12` (stereo unspecified) returned a half-maximal inhibitory concentration (IC50) of 1600 nM.

Take `COC(=O)c1ccc(S(=O)(=O)n2cccc2)cc1`: 32 nM corresponded to half-maximal inhibition in series [5] (IC50).

Consider `CC1SC(=O)NN=C1c1ccc2[nH]c(-c3ccc(-n4ccnc4)cc3)nc2c1` (stereo unspecified), for which the half-maximal inhibitory concentration (IC50) in series [2] is 36000 nM.

In [2], `CSc1nc(N)c2nc(-c3ccc(P(=O)(O)O)o3)n(CC(C)(C)C)c2n1` showed an IC50 of 700 nM.

Turning to `O=P(O)(O)OC[C@H]1O[C@H](COP(=O)(O)O)[C@@H](O)[C@@H]1O`, in series [2], the IC50 was 2000 nM.

Turning to `COc1ccc(CC(=O)Nc2cccc(-c3nnc(-c4ccc(C)cc4)o3)c2)cc1OC`, the IC50 in [1] stood at 4510 nM.

`CCCC(C)C(=O)c1sc(N)nc1-c1ccc(P(=O)(O)O)o1` (stereo unspecified) gave a half-maximal inhibitory concentration (IC50) in series [2] of 11 nM.

For `CC(C)(C)C(=O)c1sc(N)nc1-c1ccc(P(=O)(O)O)o1`, the Activity in series [6] is 200 mg/dL; in [7], 350 mg/dL. Further, in series [8], the bioavailability is 52%. Further, the EC50 in [9] turned out to be 140 nM. The IC50 in series [10] worked out at 189 nM; in series [11] it was 121 nM. The compound further gave a Cmax in [12] of 2100 ng/mL. In series [13], this compound showed a half-life of 7.6 h. In addition, in series [14], the time to peak (Tmax) worked out at 3.3 h.
